Biological target: T1, PPARγ-RXRα heterodimer (Homo sapiens, UniProt P37231)
T1 construct: expressed in transfected cells; host or cells: CHO-K1
T1 sequence (P37231 1-477 isoform P37231-2): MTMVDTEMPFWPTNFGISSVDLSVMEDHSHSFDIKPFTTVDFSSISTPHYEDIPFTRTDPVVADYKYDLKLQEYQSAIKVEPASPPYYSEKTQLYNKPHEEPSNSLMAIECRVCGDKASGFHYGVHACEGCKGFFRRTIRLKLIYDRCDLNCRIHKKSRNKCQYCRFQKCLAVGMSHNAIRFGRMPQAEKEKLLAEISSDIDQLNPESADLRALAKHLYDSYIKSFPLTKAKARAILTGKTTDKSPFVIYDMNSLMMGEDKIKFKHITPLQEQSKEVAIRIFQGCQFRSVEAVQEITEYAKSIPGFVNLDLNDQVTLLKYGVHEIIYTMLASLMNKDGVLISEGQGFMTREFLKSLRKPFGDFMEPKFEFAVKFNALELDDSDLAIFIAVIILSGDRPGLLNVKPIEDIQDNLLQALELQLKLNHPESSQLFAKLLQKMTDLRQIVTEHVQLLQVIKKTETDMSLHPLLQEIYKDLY
T1 sequence (P19793 1-462 partner): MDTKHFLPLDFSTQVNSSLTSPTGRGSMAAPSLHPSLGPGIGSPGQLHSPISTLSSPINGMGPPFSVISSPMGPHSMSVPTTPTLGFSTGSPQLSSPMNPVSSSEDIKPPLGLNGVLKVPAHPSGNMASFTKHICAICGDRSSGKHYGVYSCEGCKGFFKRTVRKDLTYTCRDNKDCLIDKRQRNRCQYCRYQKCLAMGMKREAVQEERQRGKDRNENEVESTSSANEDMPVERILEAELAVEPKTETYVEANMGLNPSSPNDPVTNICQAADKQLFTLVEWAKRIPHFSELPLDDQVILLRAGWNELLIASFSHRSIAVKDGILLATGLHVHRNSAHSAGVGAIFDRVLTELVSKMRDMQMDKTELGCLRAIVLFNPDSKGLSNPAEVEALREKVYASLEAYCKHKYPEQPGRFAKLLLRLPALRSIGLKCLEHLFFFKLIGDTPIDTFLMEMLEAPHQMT
Assay: PPARγ-RXRα heterodimer ligand activity, luciferase reporter in PPARγ:RXRα:4ERPP/CHO-K1 cells (Test Example 3)
Assay type: cell-based
Details: concentration for 50% of the maximum fold induction of luciferase activity; 48 hours, CHO-K1 cells
How it was run: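 CHO-K1 cells stably carrying hPPARγ/RXR expression plasmid and 4ERPP-TK luciferase reporter, treated 48 h at 37 °C in HAM F12 with 0.1% fatty-acid-free BSA. Luciferase fold induction taken over untreated cells; EC50 at 50% of maximal fold induction.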

Cc1oc(-c2ccccc2)nc1COc1ccc(COc2ncccc2CC(=O)O)cn1 [Example 88, 2-[2-[[6-[(5-methyl-2-phenyl-4-oxazolyl)methoxy]-3-pyridyl]methoxy]-3-pyridyl]acetic acid]
EC50: 7.1 nM

Cc1oc(-c2ccccc2)nc1CCOc1ccc(COc2ccccc2CC(=O)O)cc1 [Example 58, 2-[2-[4-[2-(5-methyl-2-phenyl-4-oxazolyl)ethoxy]benzyloxy]phenyl]acetic acid]
EC50: 120 nM

From patent publication US7238716B2, “Alkanoic acid derivatives process for their production and use thereof” (Takeda Pharmaceuticals Company Limited, priority 2000, dated 2007)
